# Results: patent US20140315991A1, “COMPOSITION FOR TREATMENT OF EPITHELIAL TISSUE” (NOVODERMIX INTERNATIONAL LIMITED, priority 2008, published 2014)
# Tested on: mature atrophic post-Acne facial scarring
# Assay: randomized, triple-blind study in mature atrophic post-Acne facial scarring (Example 7)
# Assay type: in vivo, human
# Design: transient reduction in vision (adverse event, one patient): unit not given here
# Description: A randomized, triple-blind study was conducted on 35 patients in two sites in India (Amritsar and Faridkot). Ethnic skin patients (Fitzpatrick 4-5) with mature atrophic post-Acne facial scarring (scar age >2 years) were randomly assigned to one of four study arms: topical Topiramate 5.0% (n=10), topical Topiramate 2.5% (n=9), oral Topiramate 25 mg (n=8) and topical placebo (n=7). Patients applied the topical formulation once a day on both cheeks for 3 months. Clinical assessment was performed at 6 weeks and 3 months using a visual analog scale (VAS) by the patients and 3 independent observers (2 plastic surgeons and 1 general surgeon) who scored side-by-side cheek photos (before and after treatment).
# Thirty five patients completed the study, and a total of 57 cheeks (topical Topiramate 5%—n=18; topical Topiramate 2.5%—n=19; oral Topiramate—n=13; topical Placebo—n=7) were evaluated and scored.
compound,measurement,setting,value
CC1(C)O[C@@H]2[C@@H](CO[C@@]3(COS(N)(=O)=O)OC(C)(C)O[C@@H]23)O1 [Topiramate],advantage of the study group over the control (topical placebo),day 42,95%
same,"improvement (visual analog scale, patients and 3 independent observers)","day 42, once a day",13.91%
same,advantage of the study group over the control (topical placebo),day 90,102%
same,"improvement (visual analog scale, patients and 3 independent observers)","day 90, once a day",34.69%
same,"transient reduction in vision (adverse event, one patient)","from 20/20, within 2 days from starting 25 mg oral, returned to 20/20 within 7 days from stopping",−5.00
